Reference: publication PMC3057979 (PLoS ONE, 2011)
Where no end group is shown, it is not given here.

Legend:
[1] = system: CD4^+ T cells of recombinant protein vaccinated C57BL/6 mice; assay type: cell-based
[2] = system: CD4^+ T cells of PI-WCV vaccinated C57BL/6 mice; settings: 20 h
[3] = system: CD4^+ T cells of C. burnetii RSA 439 infected C57BL/6 mice; assay type: cell-based
[4] = biological target: T1, H-2 I-A^b (purified IA^b MHC class II) (Mus musculus, UniProt P14434+P14483); experiment: biochemical; assay type: binding
T1 construct: endogenous in cells; host or cells: mouse B-cell lymphoma LB27.4
T1 sequence (P14434 24-256): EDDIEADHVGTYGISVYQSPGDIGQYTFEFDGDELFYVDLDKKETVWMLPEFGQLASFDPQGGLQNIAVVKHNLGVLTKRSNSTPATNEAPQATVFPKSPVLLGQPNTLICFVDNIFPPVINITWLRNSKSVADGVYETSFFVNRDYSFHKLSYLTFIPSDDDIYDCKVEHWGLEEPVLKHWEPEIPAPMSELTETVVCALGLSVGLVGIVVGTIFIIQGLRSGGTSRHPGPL
T1 sequence (P14483 28-265): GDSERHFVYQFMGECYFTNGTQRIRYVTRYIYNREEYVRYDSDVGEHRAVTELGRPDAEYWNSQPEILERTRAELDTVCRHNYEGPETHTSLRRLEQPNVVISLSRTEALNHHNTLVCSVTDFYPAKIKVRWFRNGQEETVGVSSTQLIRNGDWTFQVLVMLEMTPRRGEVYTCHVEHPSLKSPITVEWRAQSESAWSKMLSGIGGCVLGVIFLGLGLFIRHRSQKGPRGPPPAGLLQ

[5] = system: IgG antibody production against CBU 0383, CBU 1157, CBU 1910; parameters: species or system C57BL/6 mice; settings: mouse, in vivo

IRNKLKIQATINNAK [CBU038398-112] showed an SI-rAgs [1] of 2.22, an SI-WCV vaccination [2] of 1.07±0.51 and an SI-Infection [3] of 0.43±0.57.
With LSLMLNYPNSADRYY [CBU 1157_108–122] the SI-WCV vaccination [2] was 4.83±2.44 and the IC50 [4] was 1040 nM.
Sequence AKKLFNDPASPVAGN [CBU191081-95] has an SI-rAgs [1] of 4.8, an SI-WCV vaccination [2] of 0.63±0.31 and an SI-Infection [3] of 0.79±0.44.
In the case of KLFNDPASPVAGNPH [CBU 1910_83–97], the SI-WCV vaccination [2] is reported as 3.67±1.12 and the IC50 [4] is reported as 351 nM.
YVYDSLTTPTASVCQ [CBU1645194-208] showed an SI-rAgs [1] of 6, an SI-WCV vaccination [2] of 0.67±0.25 and an SI-Infection [3] of 0.43±0.17.
DLRYHAPIYGAVHPR [CBU 1157_177–191] was tested, and the SI-WCV vaccination [2] was 3.67±1.53 and the IC50 [4] was 193 nM.
ENAKKLFNDPASPVA [CBU191079-93] showed an SI-rAgs [1] of 5.6, an SI-WCV vaccination [2] of 0.93±0.84 and an SI-Infection [3] of 0.93±0.35.
In the case of RYHAPIYGAVHPRWL [CBU1157179-193], the SI-rAgs [1] is reported as 4.37, the SI-WCV vaccination [2] is reported as 1.97±0.75 and the SI-Infection [3] is reported as 2.37±1.05.
RDSFNNFDASIISKY [CBU 0383_69–83] was tested, and the SI-WCV vaccination [2] was 5.33±3.10 and the IC50 [4] was 507 nM.
In the case of RLVGSFPAEERIGRT [CBU 1645_272–286], the SI-WCV vaccination [2] is reported as 3.50±0.96 and the IC50 [4] is reported as 1860 nM.
For VHHYLVNHPEVLVEA [CBU 1910_43–57], the SI-rAgs [1] was 15.9, the “IgG antibodies against recombinant proteins after peptide immunization alone” value [5] was “did not generate detectable antibodies” and the SI-WCV vaccination [2] was 22.73±12.51. The SI-Infection [3] was 28.27±9.54.
HYLVNHPEVLVEASQ [CBU 1910_45–59] gave an SI-WCV vaccination [2] of 23.77±13.0 and an IC50 [4] of 293 nM.
With RGPWRYIRSFPILAS [CBU115761-75] the SI-rAgs [1] was 7.17, the SI-WCV vaccination [2] was 1.87±1.67 and the SI-Infection [3] was 0.57±0.34.
With YIWHFVDGHPIQNQW [CBU0383127-141] the SI-rAgs [1] was 16.22, the SI-WCV vaccination [2] was 1.33±1.43 and the SI-Infection [3] was 0.79±0.28.
With RYPNEPSRFEPKHID [CBU164510-24] the SI-rAgs [1] was 2.38, the SI-WCV vaccination [2] was 2.03±1.27 and the SI-Infection [3] was 1.56±1.29.
With DLPAAIVDAIAPQEG [CBU1645138-152] the SI-rAgs [1] was 3, the SI-WCV vaccination [2] was 0.80±0.62 and the SI-Infection [3] was 0.67±0.34.
In the case of PWRYIRSFPILASSG [CBU 1157_63–77], the SI-WCV vaccination [2] is reported as 6.80±1.25 and the IC50 [4] is reported as 34 nM.
IRRLVGSFPAEERIG [CBU1645270-284] gave an SI-rAgs [1] of 2.7, an SI-WCV vaccination [2] of 3.10±1.15 and an SI-Infection [3] of 1.53±0.74.
With YDSLTTPTASVCQSE [CBU 1645_196–210] the SI-WCV vaccination [2] was 4.13±1.01 and the IC50 [4] was 620 nM.
RNNYRDSFNNFDASI [CBU038365-79] gave an SI-rAgs [1] of 3.06, an SI-WCV vaccination [2] of 5.57±1.79 and an SI-Infection [3] of 3.25±2.21.
